Results: patent publication US20250270549A1, “MSI2 AS A THERAPEUTIC TARGET FOR THE TREATMENT OF MYOTONIC DYSTROPHY” (UNIVERSITAT DE VALÈNCIA, priority 2021, published 2025)
l = locked nucleic acid (LNA); d = 2'-deoxy (DNA)

What was measured:
MD1 TDMs = test: Desmin immunostaining: myogenic fusion index and myotube diameter; type: cell-based, human; conditions: MD1 myotubes; 30 nM
Description: (§1) TDMs were cultured as previously described^1. After 4 days in differentiation medium (MDM), cells were transfected with a combination of two siRNAs (SEQ ID NO: 40 and 43) targeting MSI2 transcripts (final concentration 100 nM) using Lipofectamine RNAiMAX transfection reagent (Invitrogen, Madrid, Spain)) following the manufacturer's recommendations. After 48 h, the medium containing the siRNAs was replaced by fresh MDM. 24 h later, cells were collected. As a control, the same protocol was performed using 100 nM of a siRNA with a scrambled sequence (Cat #4390843 for negative control). Gapmers against MSI2 and agomiR-107 were transfected following the same protocol using two different concentrations, 30 and 150 nM in the case of Gapmers and 100 and 300 nM in the case of agomiR-107. To treat cells with the small molecule Ro-08-2750 (Tocris Cat. No. 2272, Bristol, UK)), cells were cultured as before. Briefly, after 96 h in MDM, the medium was supplemented with Ro-08-2750 at a final concentration of 10 μM (0.8% DMSO) or with the vehicle, DMSO 0.8%, for 48 h. Then cells were collected for further analyses.
Desmin immunostaining and fusion index and diameter determination were performed as previously described^3. For MSI2 immunodetection, 3.5×10^4 fibroblasts/well were seeded in 24 well plates. After 7 days of differentiation into myotubes, cells were fixed with 4% paraformaldehyde (PFA) for 15 min. After 3 washes with PBS-T (0.1%×-TritonX-100 in PBS 1×) cells were blocked (PBS-T, 1% BSA, 5% normal goat serum) for 1 h and incubated with rabbit anti-MSI2 antibody (1:100, Abcam, EP1305Y, Cambridge, UK) in blocking buffer for 48 h at 4° C. After three washes with PBS-T, cells were incubated for 1 h with goat anti-rabbit-FITC IgG (1:200, Sigma-Aldrich, St. Louis, Missouri) in blocking buffer. Finally, cells were washed thrice with PBS 1× and were counterstained and mounted with VECTASHIELD® mounting medium containing DAPI (Vector Laboratories, London, UK) to detect the nuclei. Images were taken in a confocal microscope LSM800 (Zeiss) at 400× magnification.

miR-7 = miR-7 quantification by RT-qPCR in MD1 cells; type: cell-based, human; conditions: MD1 cells, * significant
Description: as §1
(§2) All the procedures were performed as previously described^1.

[1] = tested on: ATG3, ATG4A, ATG5, ATG7, and mTOR; test: qRT-PCR of autophagy pathway genes in DM1 TDMs; type: cell-based, human; conditions: highest concentration (150 nM)
Description: (§3) FIG. 10. Inhibition of MSI2 expression in DM1 TDMs restores impaired autophagic markers. (A) qRT-PCR quantification of the relative expression of the indicated genes involved in different autophagy pathway steps in DM1 and control (green dashed lines) myotubes. Statistical analyses were performed comparing DM1 versus controls. (B) Analyses of the expression of genes quantified in (A) in DM1 myotubes treated with ASOs targeting MSI2 transcripts. All comparisons for the statistical analyses were performed using their corresponding scrambled control (dashed lines). […] Quantification and representative western blots of (C) ATG4A, (D) ATG7, (E) AKT-P/AKT total protein levels, and (F) LC3-II/LC3-I ratio in DM1 TDMs treated with MSI2 targeting or scrambled ASOs at the indicated concentrations. Green dashed lines indicate protein expression levels in control myotubes. β-actin was used as an endogenous control to normalize protein levels (n=3). The bar graphs show mean #SEM. * p<0.05, ** p<0.01, *** p<0.001, and **** p<0.0001 according to Student's t test.
as §2

TGFBR1 = TGFBR1 expression by RT-qPCR in MD1 muscle cells; type: cell-based, H. sapiens; conditions: DM1 TDMs; 150 nM
Description: as §1, §2

MSI2 transcripts = test: MSI2 relative expression (transcripts) by RT-qPCR in muscle cells; type: cell-based, H. sapiens
Description: as §1, §2

AKT = AKT pathway activation: phospho (Ser473)-AKT-to-total-AKT ratio; type: cell-based, human; conditions: DM1 TDMs; 150 nM
Description: as §3
Protein extraction, quantification and immunodetection were performed as previously described^1,3. Specifically, MSI2 detections were performed by incubating membranes overnight with a rabbit anti-MSI2 antibody (1:1000, Abcam, EP1305Y, Cambridge, UK). […] Quantification was performed using ImageJ software (NIH).

LC3 = LC3 immunostaining and LC3 puncta quantification; type: cell-based, human; conditions: DM1 TDMs; compared to scrambled ASO at the same concentration
Description: For LC3B immunodetection, cells were differentiated in MDM for 7 days (3×10^5 cells/well in 24-well plates). After 48 h of gapmer treatment, cells were fixed with 4% PFA in PBS for 15 min at room temperature. After fixation, cells were permeabilized with methanol 100% for 15 min at −20° C. and blocked with blocking buffer (PBS 1×, 0.5% BSA, 1% goat serum) for 1 h at room temperature. Cells were incubated overnight (O/N) with rabbit anti-LC3B (1:200, ab51520; Abcam, Cambridge, UK) diluted in blocking buffer. Then, samples were incubated with goat anti-rabbit IgG (H+L) Alexa Fluor Plus 594 (1:200; Invitrogen, Carlsbad, CA, USA) for 2 h. Between antibodies, cells were washed three times with PBS 1×. Finally, cells were washed three times with PBS and mounted in Vectashield (Vector Laboratories, London, UK) with […] DAPI.
Image analyses of LC3-stained myotubes were performed using the Ifdotmeter software following the authors' recommendations (see Rodríguez-Arribas, M., et al. (2016). IFDOTMETER: A New Software Application for Automated Immunofluorescence Analysis. J. Lab. Autom. 21, 246-259). Briefly, the quantification of the number of LC3 dots or LC3 puncta was performed with 15-20 images per condition. Total LC3 dots per image were normalized relative to the total area corresponding to all myotubes observed in each image. Myotube area was measured by using ImageJ software. Data were expressed as the number of LC3 dots/mm2.

Description for Human CNT myotubes: (A) Cell growth inhibition assay by MTS method. Human CNT myotubes were transfected with increasing concentrations of ASO1, 2 and 3 (n=4). […] Vertical dashed lines indicate used concentrations in the following experiments: 30 and 150 nM.
Non-DM control (Ctrl) cells (CNT) were aliquoted in 96-well plates with 1.0×10^5 cells per well. After 24 h, cells were transfected as described with different ASOs (concentrations ranging from 1 nM to 1 μM) or treated with Ro-08-2750 (Tocris Bioscience, Bristol, UK) at concentrations ranging from 0.0195 up to 80 μM (in 1:2 serial dilutions). Cell viability was measured as previously described^3.

With “ASO1: gapmer antisense oligonucleotide against MSI2 transcript, SEQ ID NO: 76 (38), 5′ +T+G+A*C*T*T*C*T*T*T*C*G*G+C+T+G 3′, LNA ends, phosphorothioate linkages (antisense TGACTTCTTTCGGCTG; sugars from the 5' end l3 d10 l3, backbone and methylation of C not given here; further chemistry not fully specified)” the “fusion capacity (fusion index and diameter)” value (MD1 TDMs) was “significant rescue”, the “FC miR-7 expression respect to MD1, Low concentration” value (miR-7; ASO 30 nM, Ro 08-2750 10 μM, siRNA 100 nM) was 1.49 fold and the “FC miR-7 expression respect to MD1, High concentration” value (miR-7; ASO 150 nM) was 1.72* fold. The ATG5 expression [1] was “significantly reduced”, the TGFBR1 expression (TGFBR1) was “behaved the opposite” and the “MSI2 relative expression upon transfection” value (MSI2 transcripts; DM1 TDMs, 30 and 150 nM) was “significant reduction”. The “reduction of MSI2 transcript” value (MSI2 transcripts; MD1-derived myoblasts, 150 nM) was 27%, the AKT-P/AKT ratio (AKT) was “robust increase” and the TC10 (Human CNT myotubes) was 31.2 nM. The “LC3 dots per unit of area” value (LC3) was “significant decrease”.
